Test results from ChEMBL document CHEMBL2034903, “Bis-spirolabdane diterpenoids from Leonotis nepetaefolia” (J Nat Prod, 2012).

Legend:
[1] = biological target: T1, Muscarinic acetylcholine receptor M3 (Homo sapiens, UniProt P20309); assay: Displacement of [3H]QNB from human muscarinic M3 receptor at 10 uM
Target sequence in this assay (P20309 whole entry, looked up): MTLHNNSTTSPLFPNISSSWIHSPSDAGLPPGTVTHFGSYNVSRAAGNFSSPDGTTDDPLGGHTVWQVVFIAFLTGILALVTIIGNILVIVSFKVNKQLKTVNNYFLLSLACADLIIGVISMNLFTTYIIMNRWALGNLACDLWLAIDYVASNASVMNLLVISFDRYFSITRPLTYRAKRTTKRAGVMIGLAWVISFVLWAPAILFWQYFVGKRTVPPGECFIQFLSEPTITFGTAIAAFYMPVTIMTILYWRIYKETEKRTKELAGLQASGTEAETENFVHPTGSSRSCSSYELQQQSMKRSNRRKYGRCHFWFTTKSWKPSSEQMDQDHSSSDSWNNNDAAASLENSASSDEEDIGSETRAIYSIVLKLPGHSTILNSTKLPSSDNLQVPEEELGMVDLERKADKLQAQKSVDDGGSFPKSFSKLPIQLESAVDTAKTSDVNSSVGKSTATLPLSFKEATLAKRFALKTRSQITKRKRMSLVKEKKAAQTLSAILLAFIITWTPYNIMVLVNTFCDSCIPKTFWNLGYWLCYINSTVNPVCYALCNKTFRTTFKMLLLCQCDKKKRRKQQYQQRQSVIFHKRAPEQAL

D(1B) dopamine receptor [2] = biological target: T2, D(1B) dopamine receptor (Homo sapiens, UniProt P21918); assay: Displacement of [3H]SCH23390 from human dopamine D5 receptor at 10 uM
Histamine H2 receptor [3] = biological target: T3, Histamine H2 receptor (Homo sapiens, UniProt P25021); assay: Binding affinity to human histamine H2 receptor
Histamine H2 receptor [4] = biological target: T3, Histamine H2 receptor; conditions: 10 uM
Description: Inhibition of human histamine H2 receptor at 10 uM

D(1B) dopamine receptor [5] = biological target: T2, D(1B) dopamine receptor; assay: Binding affinity to human dopamine D5 receptor
[6] = biological target: T1, Muscarinic acetylcholine receptor M3; assay: Binding affinity to human muscarinic M3 receptor
Target sequence in this assay (P20309 whole entry): as the sequence (P20309 whole entry, looked up) above

T3 sequence (P25021 whole entry): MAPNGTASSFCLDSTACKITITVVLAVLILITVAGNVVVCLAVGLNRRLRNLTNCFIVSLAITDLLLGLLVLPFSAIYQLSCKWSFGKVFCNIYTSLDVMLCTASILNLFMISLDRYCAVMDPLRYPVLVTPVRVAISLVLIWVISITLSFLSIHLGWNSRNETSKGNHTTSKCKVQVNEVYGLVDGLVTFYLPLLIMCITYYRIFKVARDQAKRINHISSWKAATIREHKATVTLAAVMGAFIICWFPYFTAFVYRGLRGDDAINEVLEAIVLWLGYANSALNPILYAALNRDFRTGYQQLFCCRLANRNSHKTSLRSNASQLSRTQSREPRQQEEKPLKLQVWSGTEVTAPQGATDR
T2 sequence (P21918 whole entry): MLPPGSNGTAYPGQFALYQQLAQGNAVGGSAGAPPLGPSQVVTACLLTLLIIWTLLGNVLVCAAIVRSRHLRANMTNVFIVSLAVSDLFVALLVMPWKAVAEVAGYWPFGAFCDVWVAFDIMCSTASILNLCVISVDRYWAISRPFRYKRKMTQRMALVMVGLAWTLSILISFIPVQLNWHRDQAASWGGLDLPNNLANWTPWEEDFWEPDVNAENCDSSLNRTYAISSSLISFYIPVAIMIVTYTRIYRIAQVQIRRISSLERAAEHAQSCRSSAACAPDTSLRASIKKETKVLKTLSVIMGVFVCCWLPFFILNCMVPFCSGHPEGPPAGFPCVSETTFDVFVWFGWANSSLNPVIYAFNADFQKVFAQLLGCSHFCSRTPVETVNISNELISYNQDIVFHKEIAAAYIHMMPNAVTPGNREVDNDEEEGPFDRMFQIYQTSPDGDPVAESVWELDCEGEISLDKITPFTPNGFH

inhibition [1] | inhibition (D(1B) dopamine receptor [2]) | Ki (Histamine H2 receptor [3]) | inhibition (Histamine H2 receptor [4]) | Ki (D(1B) dopamine receptor [5]) | Ki [6] | Structure (SMILES)
> 50% |  |  |  |  |  | CO[C@H]1C[C@]2(CC[C@@]3(O2)[C@]2(CO2)C[C@@H](OC(C)=O)[C@@H]2[C@]34CCC[C@]2(C)C(=O)OC4)CO1
> 50% | > 50% |  |  |  |  | C[C@@]12CCC[C@]3(C)C(=O)O[C@H](C[C@@]4(CO4)[C@]14CC[C@]1(COC(O)C1)O4)[C@H]23 (mixture of isomers)
 |  | > 10 µM | > 50% | > 10 µM | > 10 µM | C[C@@]12CCC[C@]3(C)C(=O)O[C@H](C[C@@]4(CO4)[C@]1(O)CCc1ccoc1)[C@H]23 [LEONOTININ]
